In article PMC4544649, “A psychrotolerant strain of Serratia marcescens (MTCC 4822) produces laccase at wide temperature and pH range” (AMB Express, 2015):

Tested on: laccase
Conditions: 0.10 M citrate-phosphate buffer pH 2.5, room temperature; ABTS 0.05-1.00 mM; partially purified enzyme

CCn1c(=NN=c2sc3cc(S(=O)(=O)O)ccc3n2CC)sc2cc(S(=O)(=O)O)ccc21 [ABTS, 2, 2'-azino-bis (3-ethylbenzothiazoline-6-sulphonic acid)]
Km: 100 µM
